Source: ChEMBL document CHEMBL5223108, “Aiming to improve binding of porphyrin diphenyl guanidinium conjugates to guanine-quadruplexes: When size matters” (Bioorg Med Chem Lett, 2022)
Activity calls are given as the source filed them. The rule behind the calls is not given here.

Assays:
Quadruplex DNA [1] = assay: Binding affinity to human c-KIT1 G4 quadruplex DNA assessed as change in melting temperature at 10 uM by UV analysis; format: nucleic-acid assay
Quadruplex DNA [2] = assay: Binding affinity to human 22AG_Na G4 quadruplex DNA assessed as change in melting temperature at 10 uM by UV analysis; format: nucleic-acid assay
Quadruplex DNA [3] = assay: Binding affinity to human c-KIT2 G4 quadruplex DNA assessed as change in melting temperature at 10 uM by UV analysis; format: nucleic-acid assay
Quadruplex DNA [4] = assay: Binding affinity to 22AG_Na G4 quadruplex DNA (unknown origin) assessed as change in melting temperature at 1:2 G4:ligand ratio by UV analysis (reference value: 55.9 degreeC); format: nucleic-acid assay
Quadruplex DNA [5] = assay: Binding affinity to 22AG_K G4 quadruplex DNA (unknown origin) assessed as change in melting temperature at 1:2 G4:ligand ratio by UV analysis (reference value: 60.1 degreeC); format: nucleic-acid assay
Quadruplex DNA [6] = assay: Binding affinity to 23TA G4 quadruplex DNA (unknown origin) assessed as change in melting temperature at 1:2 G4:ligand ratio by UV analysis (reference value: 59.5 degreeC); format: nucleic-acid assay
Quadruplex DNA [7] = assay: Binding affinity to c-KIT1 G4 quadruplex DNA (unknown origin) assessed as change in melting temperature at 1:2 G4:ligand ratio by UV analysis (reference value: 66.5 degreeC); format: nucleic-acid assay
Quadruplex DNA [8] = assay: Binding affinity to c-KIT2 G4 quadruplex DNA (unknown origin) assessed as change in melting temperature at 1:2 G4:ligand ratio by UV analysis (reference value: 59.1 degreeC); format: nucleic-acid assay
Salmonidae = assay: Binding affinity to salmon testes […] DNA assessed as change in melting temperature at 1:2 […] ratio by UV analysis (reference value: 66.6 degreeC)
Quadruplex DNA [9] = assay: Binding affinity to c-KIT1 G4 quadruplex DNA (unknown origin) by CD spectroscopy analysis; format: nucleic-acid assay
Quadruplex DNA [10] = assay: Binding affinity to KRAS G4 quadruplex DNA (unknown origin) assessed as change in melting temperature at 1:2 G4:ligand ratio by UV analysis (reference value: 48.7 degreeC); format: nucleic-acid assay
Quadruplex DNA [11] = assay: Binding affinity to 22AG_Na G4 quadruplex DNA (unknown origin) by CD spectroscopy analysis; format: nucleic-acid assay

Compound	ΔTm (Quadruplex DNA [1])	ΔTm (Quadruplex DNA [2])	ΔTm (Quadruplex DNA [3])	ΔTm (Quadruplex DNA [4])	ΔTm (Quadruplex DNA [5])	ΔTm (Quadruplex DNA [6])	ΔTm (Quadruplex DNA [7])	ΔTm (Quadruplex DNA [8])	ΔTm (Salmonidae)	Activity (Quadruplex DNA [9])	ΔTm (Quadruplex DNA [10])	Activity (Quadruplex DNA [11])
N=C(N)Nc1ccc(Oc2ccc(NC(=N)NC(=O)Nc3ccc(-c4c5nc(c(-c6ccccc6)c6ccc([nH]6)c(-c6ccccc6)c6nc(c(-c7ccccc7)c7ccc4[nH]7)C=C6)C=C5)cc3)cc2)cc1	2.2 °C	-2.7 °C	> 20 °C									
N=C(N)Nc1ccc(S(=O)(=O)c2ccc(NC(=N)NC(=O)Nc3ccc(-c4c5nc(c(-c6ccccc6)c6ccc([nH]6)c(-c6ccccc6)c6nc(c(-c7ccccc7)c7ccc4[nH]7)C=C6)C=C5)cc3)cc2)cc1				10.2 °C	-1.05 °C	2.42 °C	-7.84 °C	-1.49 °C	0.02 °C	inactive	2.91 °C	inactive
N=C(N)Nc1ccc(Sc2ccc(NC(=N)NC(=O)Nc3ccc(-c4c5nc(c(-c6ccccc6)c6ccc([nH]6)c(-c6ccccc6)c6nc(c(-c7ccccc7)c7ccc4[nH]7)C=C6)C=C5)cc3)cc2)cc1	1 °C	-4.9 °C	> 20 °C									
